According to US10501516B2, “Peptide compound” (TAKEDA PHARMACEUTICAL COMPANY LIMITED, priority 2016, dated 2019):
Square brackets hold non-standard residues; d marks the D form. Side chains are listed from the residue outwards. Peptide text beside a SMILES is read from it. * marks the point of attachment. C18 diacid = O=C(O)CCCCCCCCCCCCCCCCC(=O)*; NMeY = CN[C@@H](Cc1ccc(O)cc1)C(=O)O; Palmitoyl = CCCCCCCCCCCCCCCC(=O)*; αMeF = C[C@](N)(Cc1ccccc1)C(=O)O; Iva = CC[C@](C)(N)C(=O)O; Aib = CC(C)(N)C(=O)O

Columns and labels:
[1] = system: male C57BL/6J mouse; assay: Evaluation of feeding suppressive action in mice; type: in vivo; settings: 30 nmol/kg s.c. once a day for 3 days; 3-days cumulative food consumption vs solvent control
Procedure: The feeding suppressive activity of a test compound was examined by the method described below.
The test compound was dissolved at a concentration of 30 or 100 nmol/2 mL in a solvent (10% DMSO-containing physiological saline). The test compound solution was subcutaneously administered at a dose of 2 mL/kg to the back of each male C57BL/6J mouse at 8-9 weeks of age (20-26° C., allowed to take food and water ad libitum; raised in the 12-hour bright-12-hour dark cycle). The administration was performed once a day for 3 days. After the administration, the mouse was individually raised in a rearing cage, and given previously weighed food; food consumption for 3 days after the start of administration was measured. The food consumption was calculated by subtracting the amount of remaining food from the weight of the food given on the day of the start of administration. When the food consumption of a control group receiving administration of the solvent alone was regarded as a suppression rate of 0%, the feeding suppressive activity of each test compound was evaluated on the basis of 3-days cumulative food consumption after the start of administration. The food intake suppression rate (%) of the test compound was defined as (Food consumption of the control group−Food consumption of the test compound-administered group)/Food consumption of the control group×100.

[2] = target: T1, human GIPR (Homo sapiens, UniProt P48546); assay: Reporter assay of human GIPR gene (agonist activity, intracellular cAMP as index); type: cell-based; settings: Cre-luc reporter, hGIPR/CHO-K1 cells, 4 hours
T1 construct: expressed in transfected cells; host or cells: CHO-K1 Cre-luc reporter cells (hGIPR/CHO-K1, also called hGIPR/CRE-LUC/CHO-K1)
T1 sequence (P48546 22-466): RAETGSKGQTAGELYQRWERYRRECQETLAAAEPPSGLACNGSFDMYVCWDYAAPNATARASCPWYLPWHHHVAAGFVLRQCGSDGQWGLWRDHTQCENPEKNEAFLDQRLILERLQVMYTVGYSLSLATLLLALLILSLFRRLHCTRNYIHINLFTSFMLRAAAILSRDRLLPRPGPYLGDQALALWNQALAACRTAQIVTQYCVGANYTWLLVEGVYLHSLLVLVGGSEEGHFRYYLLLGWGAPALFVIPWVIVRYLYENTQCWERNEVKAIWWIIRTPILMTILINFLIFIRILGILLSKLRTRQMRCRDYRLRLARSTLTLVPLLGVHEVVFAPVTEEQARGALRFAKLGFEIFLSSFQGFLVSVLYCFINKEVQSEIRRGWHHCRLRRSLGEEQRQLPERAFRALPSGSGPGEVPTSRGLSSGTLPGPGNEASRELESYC
Description: Evaluation of Agonist Activity Against Human NPY2R, Human GIPR, and Human GLP-1R Using Change in Intracellular cAMP Concentration as Index
The human GIPR gene having a sequence identical to the sequence of GenBank Accession No. U39231 was cloned into pMSRα-neo vector to prepare hGIPR/pMSRα-neo. This vector was introduced to the Cre-luc reporter cells obtained in (1) to obtain transformants. Next, a cell line induced to express luciferase, i.e., hGIPR/CHO-K1 cells, were selected from the obtained transformants by the addition of GIP.
The hGIPR/CRE-LUC/CHO-K1 cells or the hGLP-1R/Crel cells were inoculated at a cell density of 25 μL/well (5,000 cells/well) to a 384-well white plate (Corning, 3570), and cultured overnight in Ham F12 medium containing 10% fetal bovine serum, 100 U/mL penicillin and 100 μg/mL streptomycin in a CO2 incubator of 37° C. On the next day, a medium containing a test compound was added at a concentration of 5 μL/well to the cells, and the resultant cells were incubated for 4 hours in a CO2 incubator of 37° C. to give the final concentration of 1 μM. SteadyGlo (Promega) was added thereto at a concentration of 30 μL/well, and the mixture was shaken with light shielded. After 30 minutes, the luciferase activity was measured using a plate reader Envision (PerkinElmer). For the GIPR agonist activity, the luciferase activity in the presence of 10 μM GIP was defined as 100%, and the luciferase activity from the addition of DMSO instead of the test compound was defined as 0%. The GIPR agonist activity was calculated with a rise in intracellular cAMP concentration as an index.

EC50 [2] [nM] | SMILES | Rate of feeding suppression (%) [1] [%]
0.041 | CCCCCCCCCCCCCCCC(=O)NCC(=O)NCC(=O)NCC(=O)NCC(=O)NCCCC[C@H](NC(=O)[C@H](CC(=O)O)NC(=O)[C@H](CO)NC(=O)[C@@H](NC(=O)[C@](C)(Cc1ccccc1)NC(=O)[C@@H](NC(=O)CNC(=O)[C@H](CCC(=O)O)NC(=O)C(C)(C)NC(=O)[C@@H](N)Cc1ccc(O)cc1)[C@@H](C)O)[C@@H](C)O)C(=O)NC(C)(C)C(=O)N[C@H](C(=O)NC(C)(C)C(=O)N[C@@H](CC(C)C)C(=O)N[C@@H](CC(=O)O)C(=O)N[C@@H](CCCCN)C(=O)N[C@@H](CCC(N)=O)C(=O)N[C@@H](C)C(=O)N[C@@H](CCC(N)=O)C(=O)N[C@@](C)(CC)C(=O)N[C@@H](CCC(=O)O)C(=O)N[C@@H](Cc1ccccc1)C(=O)N[C@H](C(=O)N[C@@H](CCCNC(=N)N)C(=O)N[C@@H](Cc1c[nH]cn1)C(=O)N[C@@H](CC(C)C)C(=O)N[C@@H](CC(C)C)C(=O)N[C@@H](CC(N)=O)C(=O)N[C@@H](CCCCN)C(=O)NC(C)(C)C(=O)N[C@H](C(=O)N[C@@H](CCCNC(=N)N)C(=O)N[C@@H](CCC(N)=O)C(=O)N[C@@H](CCCNC(=N)N)C(=O)N[C@@H](Cc1ccc(O)cc1)C(N)=O)[C@@H](C)O)C(C)C)[C@@H](C)CC [Example 27] (H-Y[Aib]EGT[αMeF]TSDK([Gly-Gly-Gly-Gly-Palmitoyl])[Aib]I[Aib]LDKQAQ[Iva]EFVRHLLNK[Aib]TRQRY-NH2) | −41.6
0.074 | CC[C@H](C)[C@H](NC(=O)C(C)(C)NC(=O)[C@H](CCCCNC(=O)CNC(=O)CNC(=O)CNC(=O)CNC(=O)CCCCCCCCCCCCCCCCC(=O)O)NC(=O)[C@H](CC(=O)O)NC(=O)[C@H](CO)NC(=O)[C@@H](NC(=O)[C@](C)(Cc1ccccc1)NC(=O)[C@@H](NC(=O)CNC(=O)[C@H](CCC(=O)O)NC(=O)C(C)(C)NC(=O)[C@H](Cc1ccc(O)cc1)NC)[C@@H](C)O)[C@@H](C)O)C(=O)NC(C)(C)C(=O)N[C@@H](CC(C)C)C(=O)N[C@@H](CC(=O)O)C(=O)N[C@@H](CCCCN)C(=O)N[C@@H](CCC(N)=O)C(=O)N[C@@H](C)C(=O)N[C@@H](CCC(N)=O)C(=O)N[C@@](C)(CC)C(=O)N[C@@H](CCC(=O)O)C(=O)N[C@@H](Cc1ccccc1)C(=O)N[C@H](C(=O)N[C@@H](CCCNC(=N)N)C(=O)N[C@@H](Cc1c[nH]cn1)C(=O)N[C@@H](CC(C)C)C(=O)N[C@@H](CC(C)C)C(=O)N[C@@H](CC(N)=O)C(=O)N[C@@H](CCCCN)C(=O)NC(C)(C)C(=O)N[C@H](C(=O)N[C@@H](CCCNC(=N)N)C(=O)N[C@@H](CCC(N)=O)C(=O)N[C@@H](CCCNC(=N)N)C(=O)N[C@@H](Cc1ccc(O)cc1)C(N)=O)[C@@H](C)O)C(C)C [Example 30] (H-[NMeY][Aib]EGT[αMeF]TSDK([Gly-Gly-Gly-Gly-C18 diacid])[Aib]I[Aib]LDKQAQ[Iva]EFVRHLLNK[Aib]TRQRY-NH2) | 
0.041 | CCCCCCCCCCCCCCCC(=O)NCC(=O)NCC(=O)NCC(=O)NCC(=O)NCCCC[C@H](NC(=O)[C@H](CC(=O)O)NC(=O)[C@H](CO)NC(=O)[C@@H](NC(=O)[C@](C)(Cc1ccccc1)NC(=O)[C@@H](NC(=O)CNC(=O)[C@H](CCC(=O)O)NC(=O)C(C)(C)NC(=O)[C@@H](N)Cc1ccc(O)cc1)[C@@H](C)O)[C@@H](C)O)C(=O)N[C@@H](CO)C(=O)N[C@H](C(=O)NC(C)(C)C(=O)N[C@@H](CC(C)C)C(=O)N[C@@H](CCC(=O)O)C(=O)N[C@@H](CCCCN)C(=O)N[C@@H](CCC(N)=O)C(=O)N[C@@H](CCCNC(=N)N)C(=O)N[C@@H](CCC(N)=O)C(=O)N[C@@](C)(CC)C(=O)N[C@@H](CCC(=O)O)C(=O)N[C@@H](Cc1ccccc1)C(=O)N[C@H](C(=O)N[C@@H](CCCNC(=N)N)C(=O)N[C@@H](Cc1c[nH]cn1)C(=O)N[C@@H](CC(C)C)C(=O)N[C@@H](CC(C)C)C(=O)N[C@@H](CC(N)=O)C(=O)N[C@@H](CCCCN)C(=O)NC(C)(C)C(=O)N[C@H](C(=O)N[C@@H](CCCNC(=N)N)C(=O)N[C@@H](CCC(N)=O)C(=O)N[C@@H](CCCNC(=N)N)C(=O)N[C@@H](Cc1ccc(O)cc1)C(N)=O)[C@@H](C)O)C(C)C)[C@@H](C)CC [Example 39] (H-Y[Aib]EGT[αMeF]TSDK([Gly-Gly-Gly-Gly-Palmitoyl])SI[Aib]LEKQRQ[Iva]EFVRHLLNK[Aib]TRQRY-NH2) | −49.6
